Assay results taken from patent US11226337B2, “Chemoproteomic profiling of protein electrophilic and oxidative post-translational modifications” (Zenagem, LLC, priority 2017, dated 2022).

How the values were obtained:
Experiment in all cases: SILAC RP-ABPP
Type in all cases: cell-based
[1] = biological target: T1, ALDH1B1 Aldehyde dehydrogenase X (P30837) (Homo sapiens, UniProt P30837); conditions: SILAC H/L, HEK293T
T1 construct: shared by both the endogenous and recombinant forms of these proteins; endogenous in cells; host or cells: HEK293T and MDA-MB-231
T1 sequence (P30837 18-517): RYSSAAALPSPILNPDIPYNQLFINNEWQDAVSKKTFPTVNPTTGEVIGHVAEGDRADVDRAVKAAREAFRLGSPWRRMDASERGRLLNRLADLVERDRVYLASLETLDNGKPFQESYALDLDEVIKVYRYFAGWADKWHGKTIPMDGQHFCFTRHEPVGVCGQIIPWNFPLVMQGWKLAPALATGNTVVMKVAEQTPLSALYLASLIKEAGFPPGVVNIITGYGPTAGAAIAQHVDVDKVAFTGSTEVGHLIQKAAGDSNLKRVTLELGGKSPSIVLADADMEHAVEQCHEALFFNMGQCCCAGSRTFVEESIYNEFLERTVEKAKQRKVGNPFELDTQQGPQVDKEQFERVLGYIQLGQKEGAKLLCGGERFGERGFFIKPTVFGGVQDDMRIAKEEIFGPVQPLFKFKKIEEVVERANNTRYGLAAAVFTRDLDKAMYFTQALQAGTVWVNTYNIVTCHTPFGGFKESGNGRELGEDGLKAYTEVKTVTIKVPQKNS
Method: (§1) For MS-based experiments, labelling was performed in a similar manner as described above in Example 2, maintaining the same concentrations of probes. Modifications to this protocol included using isotopically ‘light’ and ‘heavy’ SILAC cells that were also grown to near complete confluence prior to treatment. Isotopically light cells were treated with the non-clickable hydrazine probe (at the same concentration as the probe in ‘enrichment’ experiments) or the probe in the presence of 10-fold excess non-clickable hydrazine probe as a competitor (in ‘competition’ experiments). Isotopically heavy cells were treated with the probe for both types of experiments. These treatments were performed in non-SILAC media. Following treatments, cells were washed with cold PBS to remove the probe-containing media, harvested by scraping, collected by centrifugation (1,400 g, 3 min, 4° C.), washed again by resuspension in cold PBS and frozen as pellets at −80° C. until use.
(§2) The fractionated equimolar mixture of heavy and light soluble proteomes (1-1.5 mg) was diluted to 1 mL in PBS. Click reactions were scaled accordingly (except for biotin-azide) to maintain final concentrations of 0.1 mM TBTA, 1 mM CuSO4, 100 μM biotin-azide (10 mM in DMSO) and 1 mM TCEP. The mixture was vortexed and placed on a rotator at ambient temperature for 1 hour. Sequential addition of and mixture with pre-chilled methanol (MeOH, 2 mL), chloroform (CHCl3, 0.5 mL) and PBS (1 mL) on ice quenched the reaction. The precipitated proteome was centrifuged (5,000 g, 10 min, 4° C.) to fractionate the protein interphase from the organic and aqueous solvent layers. The protein pellet was washed with cold 1:1 MeOH:CHCl3 (3×1 mL), mildly sonicated in cold 4:1 MeOH:CHCl3 (2.5 mL) and pelleted once more by centrifugation (5,000 g, 10 min, 4° C.) to ensure click reagents were efficiently removed.
(§3) Heavy and light parent ion chromatograms associated with successfully identified peptides were extracted and compared using CIMAGE software as previously described^69. At least one ion of a co-eluting heavy-light pair must be accurately identified from a fragmentation event that occurred within the retention time window (±10 min) of parent ion elution. To ensure that the correct pair of peaks is quantified, chromatograms are extracted within a 10 ppm error tolerance of the predicted m/z, the signal-to-noise ratio must be >2.5 and the ‘co-elution correlation score’ and ‘envelope correlation score’ must have R^2 values ≥0.8. In addition, peptides detected as ‘singletons,’ where only the heavy ion of a peptide pair was identified, but for which passed all other filtering parameters, are given a default assigned ratio of ‘20,’ which is defined as any measured ratio that is ≥20.
(§4) To further eliminate false positives and any stochastic variability in the data, protein ratios were then determined by the median peptide ratio derived from three or more unique quantified peptides. Protein ratios that complied with these criteria from a single experiment were then averaged with ratios acquired from ≥3 replicates to provide final values for each type of experiment in both cell lines with both probes. […] Most importantly, there are no robustly measured ratios for proteins identified as probe 1 targets that had measured ratios of ˜1 with probe 2. Probe targets in HEK293T and MDA-MB-231 cells represent data combined from ≥3 independent biological replicates with each cell type performed with several independent batches of synthesized probes over a period of almost two years. […]

[2] = biological target: T2, APLP2 Amyloidlike protein 2 (Q06481) (Homo sapiens, UniProt Q06481); conditions: SILAC H/L
T2 construct: shared by both the endogenous and recombinant forms of these proteins; endogenous in cells; host or cells: HEK293T and MDA-MB-231
Method: as §1, §2, §3, §4

[3] = biological target: T3, LIPA Lysosomal acid lipase/cholesteryl ester (P38571) (Homo sapiens, UniProt P38571); conditions: SILAC H/L, MDA-MB-231
T3 construct: In Situ Labelling of Cells with Hydrazine Probes for MS Experiments; endogenous in cells
T3 sequence (P38571 77-399): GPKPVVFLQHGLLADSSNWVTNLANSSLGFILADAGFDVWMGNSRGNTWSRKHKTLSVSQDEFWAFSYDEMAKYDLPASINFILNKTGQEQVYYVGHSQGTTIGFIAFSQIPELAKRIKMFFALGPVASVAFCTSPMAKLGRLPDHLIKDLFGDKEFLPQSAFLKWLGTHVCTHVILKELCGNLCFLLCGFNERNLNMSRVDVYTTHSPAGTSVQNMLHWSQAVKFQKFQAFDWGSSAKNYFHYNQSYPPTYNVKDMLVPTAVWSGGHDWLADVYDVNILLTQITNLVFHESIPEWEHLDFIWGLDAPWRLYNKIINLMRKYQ
Method: as §1, §2, §3, §4

[4] = biological target: T4, PLD3 Phospholipase D3 (Q8IV08) (Homo sapiens, UniProt Q8IV08); conditions: SILAC H/L, HEK293T
T4 construct: shared by both the endogenous and recombinant forms of these proteins; endogenous in cells; host or cells: HEK293T and MDA-MB-231
T4 sequence (Q8IV08 1-490): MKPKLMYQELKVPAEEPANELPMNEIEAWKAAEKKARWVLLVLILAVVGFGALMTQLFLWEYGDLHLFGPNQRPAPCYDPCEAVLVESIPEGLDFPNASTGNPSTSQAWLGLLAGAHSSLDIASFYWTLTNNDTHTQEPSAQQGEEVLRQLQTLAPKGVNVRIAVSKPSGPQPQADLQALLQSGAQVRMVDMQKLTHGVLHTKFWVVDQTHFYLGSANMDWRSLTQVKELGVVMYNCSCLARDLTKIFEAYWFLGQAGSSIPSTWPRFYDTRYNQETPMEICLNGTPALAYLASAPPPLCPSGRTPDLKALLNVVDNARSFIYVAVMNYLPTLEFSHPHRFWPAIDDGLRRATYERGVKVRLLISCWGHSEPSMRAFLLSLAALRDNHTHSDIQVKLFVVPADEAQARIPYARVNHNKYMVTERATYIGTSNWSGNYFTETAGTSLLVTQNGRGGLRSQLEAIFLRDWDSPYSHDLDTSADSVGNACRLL
Method: as §1, §2, §3, §4

T2 sequence (Q06481 32-763): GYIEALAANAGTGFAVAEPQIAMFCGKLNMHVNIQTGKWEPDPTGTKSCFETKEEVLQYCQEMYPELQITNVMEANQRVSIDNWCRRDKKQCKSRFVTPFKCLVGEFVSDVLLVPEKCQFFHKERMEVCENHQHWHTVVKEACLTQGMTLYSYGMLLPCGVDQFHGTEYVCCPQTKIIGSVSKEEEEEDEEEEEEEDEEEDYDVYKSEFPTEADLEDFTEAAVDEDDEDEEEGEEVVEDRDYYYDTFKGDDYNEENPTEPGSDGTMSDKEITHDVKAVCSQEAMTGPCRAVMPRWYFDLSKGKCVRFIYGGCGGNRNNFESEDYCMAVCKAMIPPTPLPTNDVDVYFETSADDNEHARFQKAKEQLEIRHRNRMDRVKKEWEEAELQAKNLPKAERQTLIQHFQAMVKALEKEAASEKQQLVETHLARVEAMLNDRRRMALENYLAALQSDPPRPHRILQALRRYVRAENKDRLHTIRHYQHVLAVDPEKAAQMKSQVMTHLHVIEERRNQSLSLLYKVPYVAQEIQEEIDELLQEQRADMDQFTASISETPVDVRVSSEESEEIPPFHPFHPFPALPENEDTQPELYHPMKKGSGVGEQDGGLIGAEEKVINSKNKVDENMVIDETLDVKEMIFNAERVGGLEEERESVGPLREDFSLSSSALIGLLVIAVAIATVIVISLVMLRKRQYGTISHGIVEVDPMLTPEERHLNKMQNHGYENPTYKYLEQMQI

C#CCNN.Cl [probe 1, prop-2-yn-1-ylhydrazine hydrochloride] showed an enrichment ratioavg ([1]; probe 1 3 mM 0.5 h vs probe 3) of 6, a competition ratioavg ([1]; probe 1 vs probe 1+10x probe 3) of 3 and an enrichment ratioavg ([2]; probe 1 3 mM 0.5 h vs probe 3, MDA-MB-231) of 19. It also gave a competition ratioavg ([2]; probe 1 vs probe 1+10x probe 3, MDA-MB-231) of 7, an enrichment ratioavg ([3]; probe 1 3 mM 0.5 h vs probe 3) of 7 and a competition ratioavg ([3]; probe 1 vs probe 1+10x probe 3) of 4. The enrichment ratioavg ([4]; probe 1 3 mM 0.5 h vs probe 3) was 12 and the competition ratioavg ([4]; probe 1 vs probe 1+10x probe 3) was 2.

Work on C#CCCNC(=O)c1ccc(NN)cc1.Cl [probe 2, N-(but-3-yn-1-yl)-4-hydrazinylbenzamide hydrochloride] yielded an enrichment ratioavg ([1]; probe 2 1 mM 0.5 h vs probe 4) of 11, a competition ratioavg ([1]; probe 2 vs probe 2+10x probe 4) of 5 and an enrichment ratioavg ([2]; probe 2 1 mM 0.5 h vs probe 4, single experiment, cell line not given) of 20. The enrichment ratioavg ([3]; probe 2 1 mM 0.5 h vs probe 4) was 17, the competition ratioavg ([3]; probe 2 vs probe 2+10x probe 4) was 3 and the enrichment ratioavg ([4]; probe 2 1 mM 0.5 h vs probe 4) was 5. It also gave a competition ratioavg ([4]; probe 2 vs probe 2+10x probe 4) of 2.
